Assay results from patent US8173606B2, “Sulfated oligosaccharide derivatives” (Progen Pharmaceuticals Limited, priority 2004, dated 2012).

Biological target: T1, VEGF (Homo sapiens, UniProt P15692)
T1 sequence (P15692 27-191 isoform P15692-4): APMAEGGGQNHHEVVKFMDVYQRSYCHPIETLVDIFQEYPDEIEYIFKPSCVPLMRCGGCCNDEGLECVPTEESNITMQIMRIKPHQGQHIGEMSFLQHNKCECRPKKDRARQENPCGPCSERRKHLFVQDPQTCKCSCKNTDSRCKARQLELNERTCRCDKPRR
Assay: SPR based solution affinity assay, growth factor binding (VEGF)
Details: heparin-coated sensorchip, HBS-EP buffer, 25° C.
Procedure: Binding affinities of ligands for the growth factors FGF-1, FGF-2 and VEGF were measured using a surface plasmon resonance (SPR) based solution affinity assay. The principle of the assay is that heparin immobilised on a sensorchip surface distinguishes between free and bound growth factor in an equilibrated solution of the growth factor and a ligand. Upon injection of the solution, the free growth factor binds to the immobilised heparin, is detected as an increase in the SPR response and its concentration thus determined. A decrease in the free growth factor concentration as a function of the ligand concentration allows for the calculation of the dissociation constant, Kd. It is important to note that ligand binding to the growth factors can only be detected when the interaction involves the HS binding site, thus eliminating the chance of evaluating non-specific binding to other sites on the protein. A 1:1 stoichiometry has been assumed for all protein:ligand interactions.
For the testing of growth factor binding activity, heparin-coated sensorchips were used. Their preparation, via immobilisation of biotinylated BSA-heparin on a streptavidin-coated sensorchip, has been described.[5] Heparin has also been immobilised via aldehyde coupling using either adipic acid dihydrazide or 1,4-diaminobutane. […] Ligands binding to FGF-1 and VEGF were measured in HBS-EP buffer (10 mM HEPES, pH 7.4, 150 mM NaCl, 3.0 mM EDTA and 0.005% (v/v) polysorbate 20), while binding to FGF-2 was measured in HBS-EP buffer containing 0.3 M NaCl.[5] […] For each assay mixture, 50-200 μL of solution was injected at 5-40 μL/min and the relative binding response measured. […]
Sensorgram data were analysed using the BIAevaluation software (BIAcore). […]
[formula] and the binding equation[5] can be expressed as
The Kd values given are the values fit, using the binding equation, to a plot of [P] versus [L]total. Where Kd values were measured in duplicate, the values represent the average of the duplicate measurements. […]

| Substance | Kd [nM] |
| --- | --- |
| Benzyl Glycoside Polysulfate [PG500] | 1.72 ± 0.19 |
| Octyl Glycoside Polysulfate [PG501] | 1.67 ± 0.11 |
